Test results from patent US20020137929A1, “1 - (3-heterocyclylphenyl) isothiourea, -isourea, -guanidine and -amidine herbicidal agents” (Intellectual Property Department, BASF Aktiengesellschaft, priority 1998, published 2002).

Experiments:
CASOB (Sicklepod) = assay: Postemergence herbicidal evaluation; assay type: in vivo, Cassia obtusifolia; conditions: postemergence
In short: (§1)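 Young plants, roughly two weeks from seeding, receive the active ingredient as a sprayed dispersion (acetone/water 50/50, 0.5% TWEEN 20) at 40 psi. Doses span about 0.0156 to 0.500 kg/ha. A visual score from 0 to 9 compares treated with control plants four to five weeks on.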

GALAP (Galium) = assay: Postemergence herbicidal evaluation; assay type: in vivo, Galium aparine; conditions: postemergence
In short: as §1

ZEAMX (Corn, Field) [1] = assay: Postemergence herbicidal evaluation; assay type: in vivo, Zea mays; conditions: postemergence
In short: as §1

AMBEL (Ragweed, Common) = assay: Preemergence herbicidal evaluation; assay type: in vivo, Ambrosia artemisifolia; conditions: rated 4-5 weeks after treatment
In short: (§2)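 Seeds were planted in potting soil in cups, then sprayed preemergence with the test compound in aqueous acetone at about 0.0156 to 0.500 kg per hectare. Cups were kept under greenhouse conditions and visually rated 4–5 weeks after treatment on a 0–9 scale against an untreated control.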

[2] = test system: CHEAL (Lambsquarters, Common); assay: Preemergence herbicidal evaluation; assay type: in vivo, Chenopodium album; conditions: rated 4-5 weeks after treatment
In short: as §2

[3] = test system: IPOHE (Morningglory, Ivyleaf); assay: Preemergence herbicidal evaluation; assay type: in vivo, Ipomoea hederacea; conditions: rated 4-5 weeks after treatment
In short: as §2

ORYSAT (Rice, Tebonnet) = assay: Preemergence herbicidal evaluation; assay type: in vivo, Oryza sativa, (L.) Tebonnet; conditions: rated 4-5 weeks after treatment
In short: as §2

[4] = test system: TRZAWR (Wheat, Winter, cv Riband); assay: Preemergence herbicidal evaluation; assay type: in vivo, Triticum aestivum; conditions: rated 4-5 weeks after treatment
In short: as §2

ZEAMX (Corn, Field) [5] = assay: Preemergence herbicidal evaluation; assay type: in vivo, Zea mays; conditions: rated 4-5 weeks after treatment
In short: as §2

[6] = test system: ECHORC (Watergrass (Calif.)); assay: Preemergence weed control under flooded paddy conditions; assay type: in vivo, Echinochloa oryzoides; conditions: rated 3-4 weeks after treatment
In short: (§3)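 Seeds or propagules sown in top 0.5 cm of silt loam soil, flooded 1.5 to 3 cm above surface throughout. Compound in 50/50 v/v aqueous/acetone pipetted into flood water at about 0.0313 to 0.500 kg/ha. Visual 0-9 rating versus control after three to four weeks in greenhouse.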

CYPIR (Rice Flatsedge) = assay: as above; assay type: in vivo, Cyperus iria; conditions: rated 3-4 weeks after treatment
In short: as §3

CYPSE (Flatsedge) = assay: as above; assay type: in vivo, Cyperus serotinus; conditions: rated 3-4 weeks after treatment
In short: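 Greenhouse paddy assay. Acetone/water (50/50 v/v) solutions dosed into flood water, equivalent to about 0.0313 to 0.500 kg/ha active ingredient, over seeds planted 0.5 cm deep in silt loam. Score: 0-9 visual, based on stand, vigor, malformation, size and chlorosis, 3 to 4 weeks after treatment.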

SMILES: CN1C(=O)C(CC(=O)NO)SC1=Nc1cc(-n2c(=O)cc(C(F)(F)F)n(C)c2=O)c(F)cc1Cl (centres unmarked) [Compound 162, 2-{{2-Chloro-5-[3,6-dihydro-3-methyl-2,6-dioxo-4-(trifluoromethyl)-1(2H)-pyrimidinyl]-4-fluorophenyl}imino}-3-methyl-4-oxo-5-thiazolidineacetohydroxamic acid]
- herbicidal rating CASOB (CASOB (Sicklepod); rate 0.0156 kg/ha): 0.0
- herbicidal rating CASOB (CASOB (Sicklepod); rate 0.0313 kg/ha): 0.0
- herbicidal rating CASOB (CASOB (Sicklepod); rate 0.0625 kg/ha): 2.0
- herbicidal rating GALAP (GALAP (Galium); rate 0.0156 kg/ha): 0.0
- herbicidal rating GALAP (GALAP (Galium); rate 0.0313 kg/ha): 3.0
- herbicidal rating GALAP (GALAP (Galium); rate 0.0625 kg/ha): 6.0
- herbicidal rating ZEAMX (ZEAMX (Corn, Field) [1]; rate 0.0156 kg/ha): 4.5
- herbicidal rating ZEAMX (ZEAMX (Corn, Field) [1]; rate 0.0313 kg/ha): 5.0
- herbicidal rating ZEAMX (ZEAMX (Corn, Field) [1]; rate 0.0625 kg/ha): 5.5
- Preemergence herbicidal rating AMBEL (AMBEL (Ragweed, Common); 0.0156 kg/ha): 0.0
- Preemergence herbicidal rating AMBEL (AMBEL (Ragweed, Common); 0.0313 kg/ha): 3.0
- Preemergence herbicidal rating AMBEL (AMBEL (Ragweed, Common); 0.0625 kg/ha): 5.0
- Preemergence herbicidal rating AMBEL (AMBEL (Ragweed, Common); 0.1250 kg/ha): 9.0
- Preemergence herbicidal rating AMBEL (AMBEL (Ragweed, Common); 0.2500 kg/ha): 9.0
- Preemergence herbicidal rating CHEAL ([2]; 0.0156 kg/ha): 9.0
- Preemergence herbicidal rating CHEAL ([2]; 0.0313 kg/ha): 9.0
- Preemergence herbicidal rating CHEAL ([2]; 0.0625 kg/ha): 9.0
- Preemergence herbicidal rating CHEAL ([2]; 0.1250 kg/ha): 9.0
- Preemergence herbicidal rating CHEAL ([2]; 0.2500 kg/ha): 9.0
- Preemergence herbicidal rating IPOHE ([3]; 0.0156 kg/ha): 0.0
- Preemergence herbicidal rating IPOHE ([3]; 0.0313 kg/ha): 0.0
- Preemergence herbicidal rating IPOHE ([3]; 0.0625 kg/ha): 4.0
- Preemergence herbicidal rating IPOHE ([3]; 0.1250 kg/ha): 9.0
- Preemergence herbicidal rating IPOHE ([3]; 0.2500 kg/ha): 9.0
- Preemergence herbicidal rating ORYSAT (ORYSAT (Rice, Tebonnet); 0.0156 kg/ha): 2.0
- Preemergence herbicidal rating ORYSAT (ORYSAT (Rice, Tebonnet); 0.0313 kg/ha): 3.0
- Preemergence herbicidal rating ORYSAT (ORYSAT (Rice, Tebonnet); 0.0625 kg/ha): 5.0
- Preemergence herbicidal rating ORYSAT (ORYSAT (Rice, Tebonnet); 0.1250 kg/ha): 6.0
- Preemergence herbicidal rating ORYSAT (ORYSAT (Rice, Tebonnet); 0.2500 kg/ha): 8.0
- Preemergence herbicidal rating TRZAWR ([4]; 0.0156 kg/ha): 0.0
- Preemergence herbicidal rating TRZAWR ([4]; 0.0313 kg/ha): 3.0
- Preemergence herbicidal rating TRZAWR ([4]; 0.0625 kg/ha): 7.0
- Preemergence herbicidal rating TRZAWR ([4]; 0.1250 kg/ha): 7.0
- Preemergence herbicidal rating TRZAWR ([4]; 0.2500 kg/ha): 9.0
- Preemergence herbicidal rating ZEAMX (ZEAMX (Corn, Field) [5]; 0.0156 kg/ha): 6.0
- Preemergence herbicidal rating ZEAMX (ZEAMX (Corn, Field) [5]; 0.0313 kg/ha): 7.0
- Preemergence herbicidal rating ZEAMX (ZEAMX (Corn, Field) [5]; 0.0625 kg/ha): 9.0
- Preemergence herbicidal rating ZEAMX (ZEAMX (Corn, Field) [5]; 0.1250 kg/ha): 9.0
- Preemergence herbicidal rating ZEAMX (ZEAMX (Corn, Field) [5]; 0.2500 kg/ha): 9.0
- herbicidal effect rating, ECHORC ([6]; 0.0313 kg/ha): 6.0
- herbicidal effect rating, ECHORC ([6]; 0.0625 kg/ha): 7.0
- herbicidal effect rating, ECHORC ([6]; 0.1250 kg/ha): 8.0
- herbicidal effect rating, ECHORC ([6]; 0.2500 kg/ha): 8.0
- herbicidal effect rating, CYPIR (CYPIR (Rice Flatsedge); 0.0313 kg/ha): 5.0
- herbicidal effect rating, CYPIR (CYPIR (Rice Flatsedge); 0.0625 kg/ha): 6.0
- herbicidal effect rating, CYPIR (CYPIR (Rice Flatsedge); 0.1250 kg/ha): 6.0
- herbicidal effect rating, CYPIR (CYPIR (Rice Flatsedge); 0.2500 kg/ha): 9.0
- herbicidal effect rating, CYPSE (CYPSE (Flatsedge); 0.1250 kg/ha): 9.0
- herbicidal effect rating, CYPSE (CYPSE (Flatsedge); 0.2500 kg/ha): 9.0

SMILES: Cn1c(C(F)(F)F)cc(=O)n(-c2cc(N=C3SCC(=O)N3CC(F)(F)F)c(Cl)cc2F)c1=O [Compound 163, 3-{4-Chloro-2-fluoro-5-{[4-oxo-3-(2,2,2-trifluoroethyl)-2-thiazolidinylidene]amino}phenyl}-1-methyl-6-(trifluoromethyl)-2,4(1H,3H)-pyrimidinedione]
- herbicidal rating CASOB (CASOB (Sicklepod); rate 0.0156 kg/ha): 0.0
- herbicidal rating CASOB (CASOB (Sicklepod); rate 0.0313 kg/ha): 0.0
- herbicidal rating CASOB (CASOB (Sicklepod); rate 0.0625 kg/ha): 3.0
- herbicidal rating GALAP (GALAP (Galium); rate 0.0156 kg/ha): 0.0
- herbicidal rating GALAP (GALAP (Galium); rate 0.0313 kg/ha): 3.0
- herbicidal rating GALAP (GALAP (Galium); rate 0.0625 kg/ha): 5.0
- herbicidal rating ZEAMX (ZEAMX (Corn, Field) [1]; rate 0.0156 kg/ha): 5.0
- herbicidal rating ZEAMX (ZEAMX (Corn, Field) [1]; rate 0.0313 kg/ha): 5.5
- herbicidal rating ZEAMX (ZEAMX (Corn, Field) [1]; rate 0.0625 kg/ha): 5.5
- Preemergence herbicidal rating AMBEL (AMBEL (Ragweed, Common); 0.0156 kg/ha): 0.0
- Preemergence herbicidal rating AMBEL (AMBEL (Ragweed, Common); 0.0313 kg/ha): 3.0
- Preemergence herbicidal rating AMBEL (AMBEL (Ragweed, Common); 0.0625 kg/ha): 9.0
- Preemergence herbicidal rating AMBEL (AMBEL (Ragweed, Common); 0.1250 kg/ha): 9.0
- Preemergence herbicidal rating AMBEL (AMBEL (Ragweed, Common); 0.2500 kg/ha): 9.0
- Preemergence herbicidal rating CHEAL ([2]; 0.0156 kg/ha): 9.0
- Preemergence herbicidal rating CHEAL ([2]; 0.0313 kg/ha): 9.0
- Preemergence herbicidal rating CHEAL ([2]; 0.0625 kg/ha): 9.0
- Preemergence herbicidal rating CHEAL ([2]; 0.1250 kg/ha): 9.0
- Preemergence herbicidal rating CHEAL ([2]; 0.2500 kg/ha): 9.0
- Preemergence herbicidal rating IPOHE ([3]; 0.0156 kg/ha): 0.0
- Preemergence herbicidal rating IPOHE ([3]; 0.0313 kg/ha): 0.0
- Preemergence herbicidal rating IPOHE ([3]; 0.0625 kg/ha): 3.0
- Preemergence herbicidal rating IPOHE ([3]; 0.1250 kg/ha): 9.0
- Preemergence herbicidal rating IPOHE ([3]; 0.2500 kg/ha): 9.0
- Preemergence herbicidal rating ORYSAT (ORYSAT (Rice, Tebonnet); 0.0156 kg/ha): 1.0
- Preemergence herbicidal rating ORYSAT (ORYSAT (Rice, Tebonnet); 0.0313 kg/ha): 3.0
- Preemergence herbicidal rating ORYSAT (ORYSAT (Rice, Tebonnet); 0.0625 kg/ha): 5.0
- Preemergence herbicidal rating ORYSAT (ORYSAT (Rice, Tebonnet); 0.1250 kg/ha): 7.0
- Preemergence herbicidal rating ORYSAT (ORYSAT (Rice, Tebonnet); 0.2500 kg/ha): 8.0
- Preemergence herbicidal rating TRZAWR ([4]; 0.0156 kg/ha): 0.0
- Preemergence herbicidal rating TRZAWR ([4]; 0.0313 kg/ha): 0.0
- Preemergence herbicidal rating TRZAWR ([4]; 0.0625 kg/ha): 3.0
- Preemergence herbicidal rating TRZAWR ([4]; 0.1250 kg/ha): 7.0
- Preemergence herbicidal rating TRZAWR ([4]; 0.2500 kg/ha): 7.0
- Preemergence herbicidal rating ZEAMX (ZEAMX (Corn, Field) [5]; 0.0156 kg/ha): 5.0
- Preemergence herbicidal rating ZEAMX (ZEAMX (Corn, Field) [5]; 0.0313 kg/ha): 5.0
- Preemergence herbicidal rating ZEAMX (ZEAMX (Corn, Field) [5]; 0.0625 kg/ha): 7.0
- Preemergence herbicidal rating ZEAMX (ZEAMX (Corn, Field) [5]; 0.1250 kg/ha): 7.0
- Preemergence herbicidal rating ZEAMX (ZEAMX (Corn, Field) [5]; 0.2500 kg/ha): 8.0
- herbicidal effect rating, ECHORC ([6]; 0.0313 kg/ha): 9.0
- herbicidal effect rating, ECHORC ([6]; 0.0625 kg/ha): 9.0
- herbicidal effect rating, ECHORC ([6]; 0.1250 kg/ha): 9.0
- herbicidal effect rating, ECHORC ([6]; 0.2500 kg/ha): 9.0
- herbicidal effect rating, CYPIR (CYPIR (Rice Flatsedge); 0.0313 kg/ha): 6.0
- herbicidal effect rating, CYPIR (CYPIR (Rice Flatsedge); 0.0625 kg/ha): 7.0
- herbicidal effect rating, CYPIR (CYPIR (Rice Flatsedge); 0.1250 kg/ha): 9.0
- herbicidal effect rating, CYPIR (CYPIR (Rice Flatsedge); 0.2500 kg/ha): 9.0
- herbicidal effect rating, CYPSE (CYPSE (Flatsedge); 0.1250 kg/ha): 9.0
- herbicidal effect rating, CYPSE (CYPSE (Flatsedge); 0.2500 kg/ha): 9.0
